Laboratory results as given in patent publication US8288409B2, “Quinolizidinone M1 receptor positive allosteric modulators” (Merck Sharp & Dohme Corp., priority 2008, dated 2012).
pEC50: −log10 of the molar value. Read-outs that look alike come from different tables or passages of the source.

Target: T1, acetylcholine muscarinic M1 receptor (Homo sapiens, UniProt P11229)
T1 construct: expressed in transfected cells; host or cells: CHOnfat cells (CHO; also called CHOK1/hM1)
T1 sequence (P11229 1-460): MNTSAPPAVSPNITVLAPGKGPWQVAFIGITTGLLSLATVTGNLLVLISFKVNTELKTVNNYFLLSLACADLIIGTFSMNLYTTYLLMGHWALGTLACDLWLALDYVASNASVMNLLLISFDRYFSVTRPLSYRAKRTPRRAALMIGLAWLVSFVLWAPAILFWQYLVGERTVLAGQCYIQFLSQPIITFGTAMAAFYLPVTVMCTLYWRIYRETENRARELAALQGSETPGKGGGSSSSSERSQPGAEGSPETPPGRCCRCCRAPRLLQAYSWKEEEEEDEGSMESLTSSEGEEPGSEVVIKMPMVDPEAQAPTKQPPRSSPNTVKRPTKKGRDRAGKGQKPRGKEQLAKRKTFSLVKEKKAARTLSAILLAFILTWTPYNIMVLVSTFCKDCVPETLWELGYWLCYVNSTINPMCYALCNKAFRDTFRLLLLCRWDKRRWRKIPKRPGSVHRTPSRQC
Assay: FLIPR intracellular calcium assay for M1 receptor positive allosteric modulator activity
Type: cell-based
Method: The assay studies the effect of one or several concentrations of test compounds on basal or acetylcholine-stimulated Ca^2+ levels using FLIPR.
Compounds are prepared and subjected to a preincubation period of 4 min. Thereafter, a single EC20 concentration of acetylcholine is added to each well (3 nM final). The intracellular Ca^2+ level of each sample is measured and compared to an acetylcholine control to determine any modulatory activity.
Cells: CHOnfat/hM1, hM2, hM3 or hM4 cells are plated 24 hr before the assay at a density of 18,000 cells/well (100 μl) in a 384 well plate. CHOnfat/hM1 and CHOnfat/hM3 Growth Medium: 90% DMEM (Hi Glucose); 10% HI FBS; 2 mM L-glutamine; 0.1 mM NEAA; Pen-Strep; and 1 mg/ml Geneticin, are added. For M2Gqi5CHOnfat and M4Gqi5CHOnfat cells, an additional 600 μg/ml hygromycin is added.
Buffers. […] Dye Loading Buffer: Assay Buffer plus 1% Fetal Bovine Serum and Fluo-4AM/Pluronic Acid Mixture. […] 20% Pluronic Acid Solution stock, with a concentration of 0.04% in Buffer, 0.02% in Assay.
65 μL of 2 mM Fluo-4AM are mixed with 130 of 20% Pluronic Acid. The resulting solution and 650 μL FBS is added to the assay buffer for a total volume of 65 mL. Positive Controls: 4-Br-A23187: 10 mM in DMSO; final concentration 10 μM. Acetylcholine: 10 mM in water, working stock at both 20 μM and 30 μM in assay buffer, final concentration of 10 μM. This is used to check the maximum stimulation of the CHOK1/hM1 cells. 20 μM (2×) acetylcholine is added in the preincubation part of the assay, and the 30 μM (3×) stock is added in the second part. (EC20)Acetylcholine: 10 mM in water, working stock of 9 nM (3×), and final concentration in assay is 3 nM. This is used after the preincubation with test compounds. Addition of the EC20 Acetylcholine to each well with a test compound will ascertain any modulator activity. 24 wells contain 3 nM Acetylcholine alone as a control.
Determining Activity of Putative Compounds:
Four 96-well plates are combined into a 384-well plate using Mosquito Nanolitre Pipetting System by transferring 1 μl of serial diluted compounds to each well, and 1 mM acetylcholine (100× stock concentration) were added as a control. Using Temo, 49 μl assay buffer is added to each well of the 384-well plate right before assay.
In a 96-well Whatman 2 ml Uniplate, 9 nM Acetylcholine (3×) is pipetted into wells corresponding to the screening compounds and into control wells. The 30 μM acetylcholine control (3×) is added into control wells and the 3× agonist plate is transferred into a 384-well plate.
Cells are washed three times with 100 μL of buffer, leaving 30 μL of buffer in each well. Using Multimek, 30 μL of Dye Loading Buffer is added into each well and incubated at 37° C., 5% CO2 for up to one hr.
After 60 min, the cells are washed three times with 100 μL of buffer, leaving 30 μL of buffer in each well. The cell plate, screening plate, and agonist addition plates are placed on the platform in the FLIPR and the door is closed. A signal test to check background fluorescence and basal fluorescence signal is performed. Laser intensity is adjusted if necessary.
4 min of preincubation with the test compounds is provided to determine any agonist activity on the M1 receptor by comparison to the 1 mM acetylcholine control. After preincubation, the EC20 value of acetylcholine (3 nM final) is added to determine any modulator activity.

[1] = CHOnfat/hM1 cells, 4 min preincubation, then EC20 acetylcholine (3 nM final), intracellular Ca2+ by FLIPR384, read-out: IP Value (inflection point)

pEC50 [1]	pEC50	SMILES
6.91		O=C(O)c1cc(CN2CCC(c3nc4ccccc4[nH]3)CC2)c2ccccn2c1=O [Example 85]
7.38		O=C(O)c1cc(CN2CCC(c3nc4cc(F)ccc4[nH]3)CC2)c2ccccn2c1=O [Example 86]
4.52		Cn1c(C2CCN(Cc3cc(C(=O)O)c(=O)n4ccccc34)CC2)nc2ccccc21 [Example 91, 1-{[4-(1-methyl-1H-benzimidazol-2-yl)piperidin-1-yl]methyl}-4-oxo-4H-quinolizine-3-carboxylic Acid]
	5.87	O=C(O)c1cc(CN2CCC(c3ccccc3)CC2)c2ccccn2c1=O [Example 25]
6.26		O=C(O)c1cc(CN2CCC(c3ccc(C(F)(F)F)cc3)CC2)c2ccccn2c1=O [Example 1, 4-oxo-1-({4-[4-(trifluoromethyl)phenyl]piperidin-1-yl}methyl)-4H-quinolizine-3-carboxylic Acid]

The next lines start with the molecule.

SMILES	pEC50 [1]	pEC50
O=C(O)c1cc(CN2CCC(c3c[nH]c4ccc(O)cc34)CC2)c2ccccn2c1=O [Example 83]	6.56	
O=C(O)c1cc(CN2CCCCC2c2nc3cc(F)ccc3[nH]2)c2ccccn2c1=O (stereo not drawn) [Example 14]	6.29	
O=C(O)c1cc(CN2CCCCC2c2ccncc2)c2ccccn2c1=O (stereo not drawn) [Example 6]	5.65	
O=C(O)c1cc(CN2CCCC(O)C2)c2ccccn2c1=O (stereo not drawn) [Example 24]	5.06	
